Test system: acid secretion in female rats
Experiment: Inhibiting effect on acid secretion in female rats
Assay type: in vivo, rat (Sprague-Dawley
Details: rats administered 1 μmol/kg
Protocol: Inhibiting Effect on Acid Secretion in Female Rats
Female rats of the Sprague-Dawley strain were used. They were equipped with cannulated fistulae in the stomach (lumen) and the upper part of the duodenum, for collection of gastric secretions and administration of test substances, respectively. A recovery period of 14 days after surgery was allowed before testing commenced.
Before secretory tests, the animals were deprived of food but not water for 20 h. The stomach was repeatedly washed through the gastric cannula with tap water (+37° C.), and 6 ml Ringer-Glucose given subcutaneously. […] Gastric juice samples were titrated to pH 7.0 with NaOH, 0.1M, and acid output calculated as the product of titrant volume and concentration.
Further calculations were based on group mean responses from 4-6 rats. In the case of administration during stimulation, the acid output during the periods after administration of test substance or vehicle were expressed as fractional responses, setting the acid output in the 30-min period preceding administration to 1.0. Percentage inhibition was calculated from the fractional responses elicited by test compound and vehicle. In the case of administration before stimulation, percentage inhibition was calculated directly from acid output recorded after test compound and vehicle. […]

## Cc1cccc(C)c1CNc1cc(C(=O)NCCOC(=O)CCCC(=O)O)cn2c(C)c(C)nc12 [Example 1, 5-{2-[({8-[(2,6-dimethylbenzyl)amino]-2,3-dimethylimidazo[1,2-a]pyridin-6-yl}carbonyl)amino]ethoxy}-5-oxopentanoic acid]
  maximal inhibition of acid secretion: 100%

## Cc1cccc(C)c1CNc1cc(C(=O)NCCOC(=O)CCC(=O)O)cn2c(C)c(C)nc12 [Example 2, 4-{2-[({8-[(2,6-dimethylbenzyl)amino]-2,3-dimethylimidazo[1,2-a]pyridin-6-yl}carbonyl)amino]ethoxy}-4-oxobutanoic acid]
  maximal inhibition of acid secretion: 70%

Source: patent US8993589B2, “Imidazopyridine derivatives which inhibit the secretion of gastric acid” (priority 2008, dated 2015)
